One may read the EC50 as the midpoint of the concentration-response curve. Low values mean a more potent agent, high ones a less potent agent.

Entries after “also recorded” stand apart in the source; their conditions may differ. Like-named read-outs stand apart in the source and are kept apart here.

The target of series [1] is T1, hKOR (Homo sapiens, UniProt P41145). Description: Receptor binding with [3H]diprenorphine at hKOR. Particulars: ± SD (two experiments) or SEM; (n) experiments; read-out: hKOR [3H]dyprenorphine Ki.
T1 sequence (P41145 whole entry): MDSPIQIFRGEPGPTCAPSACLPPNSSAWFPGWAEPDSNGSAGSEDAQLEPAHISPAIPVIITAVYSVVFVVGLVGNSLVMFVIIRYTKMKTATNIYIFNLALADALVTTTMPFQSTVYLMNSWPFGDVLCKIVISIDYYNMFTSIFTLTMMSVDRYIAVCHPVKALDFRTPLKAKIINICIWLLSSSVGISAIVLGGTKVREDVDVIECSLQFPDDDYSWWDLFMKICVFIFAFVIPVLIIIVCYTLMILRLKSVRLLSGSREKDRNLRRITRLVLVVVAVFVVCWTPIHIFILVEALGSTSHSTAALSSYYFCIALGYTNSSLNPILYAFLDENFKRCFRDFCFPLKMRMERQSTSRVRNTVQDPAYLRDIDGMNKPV
The target of series [2] is humanDOR (Homo sapiens, UniProt P41143). As to the kind of experiment: Receptor binding with [3H]diprenorphine at human DOR. As to conditions: ± SD (two experiments) or SEM; (n) experiments; read-out: humanDOR [3H]dyprenorphine Ki.
Sequence of humanDOR (P41143 whole entry): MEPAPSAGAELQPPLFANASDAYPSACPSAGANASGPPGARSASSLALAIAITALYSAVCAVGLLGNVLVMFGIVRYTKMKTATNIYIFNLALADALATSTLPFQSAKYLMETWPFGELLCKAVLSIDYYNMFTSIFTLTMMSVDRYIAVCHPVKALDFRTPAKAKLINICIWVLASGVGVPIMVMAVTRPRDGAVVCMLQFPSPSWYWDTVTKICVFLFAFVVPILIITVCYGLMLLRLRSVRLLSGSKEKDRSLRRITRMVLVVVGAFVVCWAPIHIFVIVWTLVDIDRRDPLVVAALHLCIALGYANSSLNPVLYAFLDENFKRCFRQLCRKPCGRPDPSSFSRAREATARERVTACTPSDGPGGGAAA
Series [3] deals with T2, hMOR + Gqi5 (Homo sapiens, UniProt P35372).
T2 construct: expressed in transfected cells
T2 sequence (P35372 whole entry): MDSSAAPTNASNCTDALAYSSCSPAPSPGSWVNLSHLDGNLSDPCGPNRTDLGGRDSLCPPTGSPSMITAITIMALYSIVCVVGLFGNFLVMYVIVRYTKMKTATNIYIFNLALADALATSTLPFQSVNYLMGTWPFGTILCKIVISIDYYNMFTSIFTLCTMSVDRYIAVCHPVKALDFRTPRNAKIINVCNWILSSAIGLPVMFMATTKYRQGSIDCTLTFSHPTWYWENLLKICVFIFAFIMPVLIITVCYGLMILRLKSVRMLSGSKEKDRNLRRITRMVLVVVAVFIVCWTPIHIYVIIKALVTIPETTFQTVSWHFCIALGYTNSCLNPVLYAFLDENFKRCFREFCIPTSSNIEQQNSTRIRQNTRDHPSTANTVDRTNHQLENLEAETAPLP
Description: IP accumulation assay, hMOR + Gqi5. Particulars: % morphine. It counts as cell-based.

Series [4] deals with T3, hMOR (Homo sapiens, UniProt P35372). Description: Receptor binding with [3H]diprenorphine at hMOR. Particulars: ± SD (two experiments) or SEM; (n) experiments; read-out: hMOR [3H]dyprenorphine Ki.
T3 sequence (P35372 whole entry): as above
Series [5] concerns the target T3, hMOR. As to the kind of experiment: Radioligand binding studies (Example 6) at hMOR. The procedure: (§1) For a primary screen of selected molecules, binding to μOR was assessed by measuring competition against the radioligand ^3H-diprenorphine (^3H-DPN). […] The reaction contained 40 fmol of μOR and was incubated in a buffer of 20 mM HEPES pH 7.5, 100 mM sodium chloride, and 0.1% bovine serum albumin for 1 hour at 25° C. To separate free from bound radioligand, reactions were rapidly filtered over Whatman GF/B filters with the aid of a Brandel harvester and ^3H-DPN counts were measured by liquid scintillation. […] Subsequently, the 8 compounds were tested in full dose-response for affinity at the μOR and the κOR by the National Institutes of Mental Health Psychoactive Drug Screen Program (PDSP), as were the affinities of the compounds at the μOR, δOR, κOR, and the nociception receptor.

Series [6] deals with hDOR (Homo sapiens, UniProt P41143). Description: Radioligand binding studies (Example 6) at hDOR. The procedure: as §1
Sequence of hDOR (P41143 whole entry): as the sequence (P41143 whole entry) above
For series [7], the target named is T1, hKOR. As to the kind of experiment: Radioligand binding studies (Example 6) at hKOR. The procedure: as §1
In series [8] the target is T4, μOR (Homo sapiens, UniProt P35372). Description: BRET-based cAMP accumulation assay (SAR of PZM21-29). It counts as cell-based. Particulars: for loss of potency: compared to parent reference compound (PZM22). A general note: Bioluminescence resonance energy transfer reports proximity on the nanometre scale.
T4 sequence (P35372 whole entry): as the sequence (P35372 whole entry) above
In series [9] the target is T5, μOR:N127C (Homo sapiens, UniProt P35372, N129C).
T5 construct: expressed in transfected cells; host or cells: HEK 293
T5 sequence (P35372 whole entry N129C): as the sequence (P35372 whole entry) above, with N129C counted along it
As to the kind of experiment: Radioligand depletion assay, irreversible binding at μOR:N127C. Particulars: wash-resistant inhibition of radioligand binding.

Series [10] addresses T6, κOR (Homo sapiens, UniProt P41145).
T6 construct: NIMH Psychoactive Drug Screening Program (PDSP)
Description: Gi/o Glosensor assay at κOR. It counts as cell-based.

Series [11] concerns the target T4, μOR. As to the kind of experiment: β-arrestin recruitment at μOR without GRK2. It counts as cell-based.
The test system of series [12] is C57BL/6J mice. As to the kind of experiment: Mouse whole body plethysmography (respiration). Particulars: equianalgesic doses of PZM21, TRV130 and morphine (40 mg/kg, […], 10 mg/kg).
Series [13] has as its system C57BL/6J mice. Description: Conditioned place preference. Particulars: mouse, in vivo. As for the experimental part: On day 1 (preconditioning day), mice were placed in the central chamber and allowed to explore freely for 30 minutes. Time spent in each compartment was used to estimate baseline chamber preferences and mice showing specific chamber bias more than 70% were not studied further. On days 2-9 (conditioning days) mice were injected with either vehicle or drug and paired with either the white mesh or the black rod chambers. All mice received vehicle on days 2, 4, 6, 8 and drug on days 3, 5, 7, 9. On day 10 (test day), mice were again placed in the central chamber as on day 1 and allowed to explore freely for 30 minutes. Time spent in each chamber was expressed as percentage preference.

Series [14] deals with T4, μOR. Description: β-arrestin recruitment at μOR with GRK2 co-expression. It counts as cell-based. On the technique in general: Arrestin recruitment assays detect the binding of arrestin to an activated receptor.
Series [15] deals with T6, κOR. Description: Radioligand binding at κOR (PDSP).
Series [16] concerns the target T7, nociceptin receptor (Homo sapiens, UniProt P41146).
T7 construct: NIMH Psychoactive Drug Screening Program (PDSP)
As to the kind of experiment: Gi/o Glosensor assay at nociceptin receptor. The class given is cell-based. As to conditions: ND = not detectable.

Series [17] deals with T4, μOR. Description: β-arrestin2 recruitment, PathHunter assay. It counts as cell-based.
Series [18] has as its target T4, μOR. As to the kind of experiment: cell-based. The class given is cell-based.

T6 sequence (P41145 whole entry): as the sequence (P41145 whole entry) above
T7 sequence (P41146 whole entry): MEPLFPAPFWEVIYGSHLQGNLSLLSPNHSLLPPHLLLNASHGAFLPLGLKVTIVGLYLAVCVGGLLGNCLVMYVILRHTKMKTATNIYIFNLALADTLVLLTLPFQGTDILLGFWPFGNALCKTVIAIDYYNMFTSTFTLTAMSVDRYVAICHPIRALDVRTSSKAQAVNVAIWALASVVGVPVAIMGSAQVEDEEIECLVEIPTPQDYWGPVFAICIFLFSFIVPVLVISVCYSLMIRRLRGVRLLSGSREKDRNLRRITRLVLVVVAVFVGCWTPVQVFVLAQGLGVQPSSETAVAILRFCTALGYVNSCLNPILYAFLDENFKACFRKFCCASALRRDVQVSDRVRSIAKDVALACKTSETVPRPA

For `CC(Cc1ccsc1)NC(=O)NCC(Cc1ccc(O)cc1)N(C)C` (single isomer, unassigned) [BD 122LR], the Ki in series [1] amounted to 190 nM; in [2], 88 nM. For the same compound, in series [3], the “hMOR + Gqi5 IP accumulation assay efficacy a” value is reported as “a: 17%”.
Take `CC(Cc1ccsc1)NC(=O)NCC(Cc1ccc(O)cc1)N(C)C` (single isomer, unassigned) [BD 122LS]: the “hMOR + Gqi5 IP accumulation assay efficacy a” value in series [3] was “a: 73%”.
As to `Cc1cc(O)cc(C)c1C[C@@H](CNC(=O)N[C@H](C)Cc1ccsc1)N(C)C` [BD 131LR, 1-((S)-2-(dimethylamino)-3-(4-hydroxy-2,6-dimethylphenyl)propyl)-3-((R)-1-(thiophen-3-yl)propan-2-yl)urea], the values for the Ki in [1], in series [2] and in [4] were 12 nM, 17 nM and 4.1 nM, respectively. The “hMOR + Gqi5 IP accumulation assay efficacy a @10 μM” value in series [3] (@10 μM) was “@10 μM a: 10%”.
Consider `Cc1cc(O)cc(C)c1C[C@@H](CNC(=O)N[C@@H](C)Cc1ccsc1)N(C)C` [BD 131LS, 1-((S)-2-(dimethylamino)-3-(4-hydroxy-2,6-dimethylphenyl)propyl)-3-((S)-1-(thiophen-3-yl)propan-2-yl)urea], for which the Ki in series [1] was 6.5 nM; in series [2], 85 nM; in series [4], 12 nM. Further, the “hMOR + Gqi5 IP accumulation assay efficacy a” value in [3] is given as “a: <5%”.
As for `C[C@@H](Cc1ccsc1)NC(=O)NC[C@@H]1Cc2ccc(O)cc2CN1C` [DD118, 1-(((S)-7-hydroxy-2-methyl-1,2,3,4-tetrahydroisoquinolin-3-yl)methyl)-3-((S)-1-(thiophen-3-yl)propan-2-yl)urea], the Ki in series [5] amounted to 150 nM; in [6], 150 nM; in series [7], 110 nM.
On to `COc1cc(F)ccc1CCNC(=O)NC[C@H](Cc1ccc(O)cc1)N(C)C` [DD214, (S)-1-(2-(dimethylamino)-3-(4-hydroxyphenyl)propyl)-3-(4-fluoro-2-methoxyphenethyl)urea], for which the Ki in series [5] was found to be 42 nM; in series [6], 390 nM; in [7], 170 nM.
With `COc1ccc(C[C@@H](CNC(=O)N[C@@H](C)Cc2ccsc2)N(C)C)cc1` [DD222, 1-((S)-2-(dimethylamino)-3-(4-methoxyphenyl)propyl)-3-((S)-1-(thiophen-3-yl)propan-2-yl)urea], the Ki was 390 nM in series [5], 5900 nM in series [6] and 460 nM in series [7].
As to `CN[C@H](CNC(=O)NCCc1ccc(F)cc1OC)Cc1ccc(O)cc1` [DD229, (5)-1-(4-fluoro-2-methoxyphenethyl)-3-(3-(4-hydroxyphenyl)-2-(methylamino)propyl)urea], the Ki in [5] (read-out: Binding affinities hMOR [3H]dyprenorph) was found to be 130 nM; in series [6] (read-out: Binding affinities hDOR [3H]dyprenorph), 480 nM; in [7] (read-out: Binding affinities hKOR [3H]dyprenorph), 320 nM.
`CC(=O)Oc1ccc(C[C@@H](CNC(=O)N[C@@H](C)Cc2ccsc2)N(C)C)cc1` [DD230, 4-((S)-2-(dimethylamino)-3-(3-((S)-1-(thiophen-3-yl)propan-2-yl)ureido)propyl)phenyl acetate]: the Ki was 240 nM in series [5], 920 nM in [6] and 250 nM in series [7].
The corresponding values for `CN(C)[C@H](CNc1c(NCCc2ccccc2)c(=O)c1=O)Cc1ccc(O)cc1` [DD247, (S)-3-((2-(dimethylamino)-3-(4-hydroxyphenyl)propyl)amino)-4-(phenethylamino)cyclobut-3-ene-1,2-dione] are 320 nM, 2900 nM and 310 nM.
In the case of `C[C@@H](Cc1ccsc1)Nc1c(NC[C@H](Cc2ccc(O)cc2)N(C)C)c(=O)c1=O` [DD251, 3-(((S)-2-(dimethylamino)-3-(4-hydroxyphenyl)propyl)amino)-4-(((S)-1-(thiophen-3-yl)propan-2-yl)amino)cyclobut-3-ene-1,2-dione], the Ki in series [5] turned out to be 33 nM; in series [6], 650 nM; in series [7] it was 16 nM.
For `CN(C)[C@H](CNc1nc(=O)cc(Cc2ccccc2)[nH]1)Cc1ccc(O)cc1` [DD258, (S)-6-benzyl-2-((2-(dimethylamino)-3-(4-hydroxyphenyl)propyl)amino)pyrimidin-4(1H)-one], the Ki in [5] came out at 290 nM; in series [6], 390 nM; in [7], 350 nM.
`CN(CC1CC1)[C@H](CNC(=O)NCCc1ccccc1)Cc1ccc(O)cc1` [PZM27, (S)-1-(2-((Cyclopropylmethyl)(methyl)amino)-3-(4-hydroxyphenyl)propyl)-3-phenethylurea x CF3COOH]: in series [8], the “efficacy and potency as agonist (in words)” value is “decreased efficacy”; the loss of potency was found to be 30 fold.
For `CN(C=O)[C@H](CNC(=O)NCCc1ccccc1)Cc1ccc(O)cc1` [PZM28, (S)—N-(1-(4-Hydroxyphenyl)-3-(3-phenethylureido)propan-2-yl)-N-methylformamide], in series [8], the loss of potency is listed as 1000 fold.
With `CN(C)[C@H](CNC(=O)NCCc1cn(CCSSCCN=[N+]=[N-])nn1)Cc1ccc(O)cc1` [PZM29, (S)-1-(2-(1-(2-((2-Azidoethyl)disulfanyl)ethyl)-1H-1,2,3-triazol-4-yl)ethyl)-3-(2-(dimethylamino)-3-(4-hydroxyphenyl)propyl)urea x CF3COOH], the “irreversible binding to μOR:N127C” value in series [9] is listed as “binds to the μOR:N127C variant irreversibly; also recorded: binds irreversibly to this mutant”. The “efficacy and potency as agonist (in words)” value in series [8] is listed as “retains its efficacy as an agonist”.
With `COc1ccsc1CNCC[C@@]1(c2ccccn2)CCOC2(CCCC2)C1` [TRV130, reference compound], the “KOR agonist activity (in words)” value in [10] is on record as “activates κOR with similar potency to morphine”. Further, the “β-arrestin2 recruitment in the absence of GRK2 (in words)” value in [11] was “no β-arrestin2 recruitment”. Further, the respiration frequency result in series [12] is “significantly depresses respiration at 15 minutes”. Also, in series [13], the conditioned place preference entry is given as “not significant relative to vehicle”. In addition, in [14], the “arrestin recruitment with over-expressed GRK2 (in words)” value is given as “arrestin recruitment”.
In the case of `C[C@H](Cc1ccsc1)NC(=O)NC[C@@H](Cc1ccccc1)N(C)C` [compound 12], the Ki in series [15] (Ki (nM) κOR) is 464 nM; in [15] (κOR Ki (μM), analogs, full dose-response), 460 nM. This compound came in with an EC50 in series [16] of 1400 nM. For the same compound, in series [17], the “β-arrestin2 recruitment (in words)” value is “undetectable; also recorded: low levels”. In addition, in series [18], the “Gi/o activation, μOR agonist activity (in words)” value is reported as “robust μOR agonist activity; also recorded: strongly activated Gi/o”.
For “(S)-1-(2-(dimethylamino)-3-(4-hydroxy-2,6-dimethylphenyl)propyl)-3-(2-(thiophen-3-yl)ethyl)urea [DD 34L]”, the values for the Ki in series [1], in series [2] and in [4] were 27 nM, 51 nM and 6.2 nM, respectively. Also, the “hMOR + Gqi5 IP accumulation assay efficacy a” value in series [3] is on record as “a: <5%”.

The values are drawn from patent publication US20200109126A1 (priority 2017, published 2020).
